The results in this text go back to PubChem BioAssay AID806 (SRMLSC, 2007).

Calls of active or inactive are those of the source. No rule for the calls is given here.

The experiment deals with virus-infected cells, CPE inhibition, dose response. The experiment can be described thus: PubChem AID 806. The settings on record: for EC90: measured here: EC90 CPE inhibition; for CC50: measured here: cytotoxicity, cell viability IC50.

As a reminder, the EC50 is the concentration needed to bring the measured effect to its halfway point. For orientation: EC90 means the concentration needed for an effect of 90%. Read a low EC90 as greater potency. Usually CC50 stands for the concentration that lowers cell viability or growth by half. `Cc1cccc(NC(=O)CCS(=O)(=O)c2cccc3nsnc23)c1C`: the EC50 is > 60 µM (inactive), the EC90 was over 60 µM and the CC50 is over 60 µM.

`Cc1cc(C)n(S(=O)(=O)/C=C/c2ccccc2)n1`: the EC50 is 56.5 µM (inactive), the concentration for an effect of 90% (EC90) was over 60 µM and the CC50 was over 60 µM.

Consider `COc1ccc(Cl)cc1NC(=O)CS(=O)(=O)c1cccc2nsnc12`, for which the EC50 is > 60 µM (inactive), the EC90 was over 60 µM and the CC50 was over 60 µM.

`CN1c2ccsc2C(O)=C(C(=S)Nc2ccccc2)S1(=O)=O`: the EC50 was > 60 µM (inactive), the EC90 is over 60 µM and the CC50 was over 60 µM.

For the molecule `CC(C)(C)NC(=O)c1cccc(NC(=O)c2ccc(NC(=O)c3ccco3)cc2)c1`, the EC50 is > 60 µM (inactive), the EC90 is over 60 µM and the CC50 was over 60 µM.

On to `COCCNC(=O)C(c1ccccc1)N(CCOC)C(=O)Cn1nnc2ccccc21` (stereo unspecified), for which the EC50 was > 60 µM (inactive), the EC90 is over 60 µM and the 50% cytotoxic concentration (CC50) was over 60 µM.

On to `O=C(CSc1nnc2sc3ccccc3n12)NCc1ccco1`, for which the EC90 was over 60 µM and the CC50 is over 60 µM.

`O=C(CSc1ccc2nnc(-c3cccnc3)n2n1)NCc1ccco1`: the EC50 was > 60 µM (inactive), the EC90 is over 60 µM and the CC50 was over 60 µM.

For `O=C(c1ccc(S(=O)(=O)N2CCOCC2)cc1)N1CCc2ccccc2C1`, the EC50 was > 60 µM (inactive), the EC90 was over 60 µM and the CC50 was over 60 µM.

For `COC(=O)CSc1nnc([C@H](Cc2ccccc2)NC(=O)OC(C)(C)C)o1`, the EC50 is > 60 µM (inactive), the EC90 was over 60 µM and the CC50 is over 60 µM.

Turning to `CN(C)CCSc1nnc(-c2ccccc2)o1`, the EC50 is > 60 µM (inactive), the EC90 was over 60 µM and the CC50 is over 60 µM.

For the molecule `COc1ccc(OC)c(Nc2ncnc3c2cnn3-c2cccc(C)c2)c1`, the EC50 is > 60 µM (inactive), the EC90 is over 60 µM and the CC50 was over 60 µM.

As for `CC(C)c1cccc(C(C)C)c1OCCCCN1CCCC1`, the EC50 was > 60 µM (inactive), the EC90 was over 60 µM and the CC50 was over 60 µM.

With `Cc1ccc(/C=C/C(=O)c2c(C)cc(C)[nH]c2=O)cc1`, the EC50 is > 60 µM (inactive), the concentration for an effect of 90% (EC90) was over 60 µM and the CC50 is over 60 µM.

Consider `CSc1nnc(-c2ccccc2Cl)o1`, for which the EC50 is > 60 µM (inactive), the EC90 is over 60 µM and the CC50 is over 60 µM.

Regarding `CC1(C)Cc2c(c(N3CCOCC3)nc3sc4c(NN)ncnc4c23)CS1`, the EC50 was > 60 µM (inactive), the EC90 is over 60 µM and the CC50 was determined as 4.49 µM.

Turning to `S=C(Nc1ccccc1)N1CCn2c1nc1ccccc12`, the EC50 is > 60 µM (inactive), the EC90 was over 60 µM and the CC50 was over 60 µM.

For the molecule `C#CCSc1nnc(-c2ccc(C)cc2)o1`, the EC50 was > 60 µM (inactive), the concentration for an effect of 90% (EC90) was over 60 µM and the CC50 was over 60 µM.

With `COc1c(C(C)C)cc(NC(C)=O)cc1C(C)C`, the EC50 was > 60 µM (inactive), the EC90 was over 60 µM and the cytotoxic concentration (CC50) is over 60 µM.

For `Cc1nc2c(C(=O)N3CCOCC3)cnn2c(C)c1Cc1ccc(Cl)cc1`, the EC50 is > 60 µM (inactive), the concentration for an effect of 90% (EC90) was over 60 µM and the CC50 is over 60 µM.

Consider `CCCCN(C(=O)Cn1nnc2ccccc21)C(C(=O)NCCOC)c1ccccc1` (stereo unspecified), for which the EC50 was > 60 µM (inactive), the concentration for an effect of 90% (EC90) is over 60 µM and the CC50 was over 60 µM.

For the molecule `COc1ccccc1NC(=O)CS(=O)(=O)c1cccc2nsnc12`, the EC50 was > 60 µM (inactive), the EC90 was over 60 µM and the CC50 is over 60 µM.

Consider `O=C(c1cc(-c2ccc(Cl)cc2)n(-c2ccc(Cl)cc2Cl)n1)N1CCOCC1`, for which the EC50 is > 60 µM (inactive), the concentration for an effect of 90% (EC90) was over 60 µM and the CC50 was over 60 µM.

For the molecule `COC(=O)Nc1ccc(S(=O)(=O)N2CCCCC2C(=O)NCc2ccco2)cc1` (stereo unspecified), the EC50 is > 60 µM (inactive), the EC90 is over 60 µM and the CC50 was over 60 µM.
